Data published in patent publication US20260055102A1 (Redx Pharma Limited, priority 2022, published 2026).

Columns and labels:
[1] = biological target: Recombinant human DDR2 (aa427-855 containing a GST tag) (Homo sapiens (Human), UniProt Q16832); assay: LanthaScreen Eu Kinase Binding Assay DDR2; details: Kinase Tracer 178 10 nM, at least two independent replicates; for IC50: read-out: DDR2 pIC50 (converted)
Summary of the method: (§1)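 DDR1 (2.5 nM) or DDR2 (1.75 nM) was preincubated with compound 30 min at RT in 50 mM HEPES pH 7.3, 10 mM MgCl2, 1 mM EGTA, 0.01% Tween. Eu-anti-GST and Tracer 178 were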

[2] = biological target: Recombinant human DDR1 (aa440-876 containing a GST tag) (Homo sapiens (Human), UniProt Q08345); assay: LanthaScreen Eu Kinase Binding Assay DDR1; details: Kinase Tracer 178 5 nM, at least two independent replicates; for IC50: read-out: DDR1 pIC50 (converted)
Chain of Recombinant human DDR1 (aa440-876 containing a GST tag) (Q08345 other isoform, or with tags, fused parts or gaps): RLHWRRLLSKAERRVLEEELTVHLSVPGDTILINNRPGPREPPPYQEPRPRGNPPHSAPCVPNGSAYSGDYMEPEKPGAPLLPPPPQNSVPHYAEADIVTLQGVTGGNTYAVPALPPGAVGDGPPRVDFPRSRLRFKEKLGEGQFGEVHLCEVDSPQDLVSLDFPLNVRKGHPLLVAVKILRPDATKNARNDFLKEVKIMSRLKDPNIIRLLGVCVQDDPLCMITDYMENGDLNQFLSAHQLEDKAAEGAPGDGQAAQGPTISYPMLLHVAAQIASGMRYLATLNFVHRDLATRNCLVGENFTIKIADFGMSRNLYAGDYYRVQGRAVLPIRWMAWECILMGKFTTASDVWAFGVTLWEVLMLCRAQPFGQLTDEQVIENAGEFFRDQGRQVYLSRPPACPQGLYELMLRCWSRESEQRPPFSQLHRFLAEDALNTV
Summary of the method: as §1

Chain of Recombinant human DDR2 (aa427-855 containing a GST tag) (Q16832 427-855): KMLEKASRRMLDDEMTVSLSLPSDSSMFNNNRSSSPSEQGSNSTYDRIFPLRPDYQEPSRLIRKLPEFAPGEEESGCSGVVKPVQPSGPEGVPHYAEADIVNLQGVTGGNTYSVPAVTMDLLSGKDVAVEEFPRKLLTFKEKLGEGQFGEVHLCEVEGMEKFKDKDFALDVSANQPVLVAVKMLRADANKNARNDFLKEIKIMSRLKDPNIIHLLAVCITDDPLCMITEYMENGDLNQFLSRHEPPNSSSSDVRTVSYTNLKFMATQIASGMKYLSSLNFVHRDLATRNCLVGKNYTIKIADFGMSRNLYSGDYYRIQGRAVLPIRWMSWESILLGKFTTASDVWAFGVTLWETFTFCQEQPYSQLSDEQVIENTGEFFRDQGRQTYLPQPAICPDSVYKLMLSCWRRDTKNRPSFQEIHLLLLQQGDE

Row | Structure (SMILES) | IC50 [1] [nM] | DDR1 pIC50 [2] | DDR2 pIC50 [1] | IC50 [2] [nM]
1 | Cc1cccc2c1n(-c1ccc(-c3cncc4[nH]ncc34)cn1)c(=O)n2CC(=O)N1CCO[C@@H](C(F)(F)F)C1 [Example 71, 4-methyl-1-[2-oxo-2-[(2R)-2-(trifluoromethyl)morpholin-4-yl]ethyl]-3-[5-(1H-pyrazolo[3,4-c]pyridin-4-yl)-2-pyridyl]benzimidazol-2-one] | 100 to 1000 | A (pIC50>8) | – | –
2 | Cc1cccc2c1n(-c1ccc(-c3cncc4c3cnn4C)cn1)c(=O)n2CC(=O)N[C@@H](C)C(F)(F)F [Example 64, 2-[4-methyl-3-[5-(1-methylpyrazolo[3,4-c]pyridin-4-yl)-2-pyridyl]-2-oxo-benzimidazol-1-yl]-N-[(1S)-2,2,2-trifluoro-1-methyl-ethyl]acetamide] | – | B (8≥pIC50>7) | D (pIC50≤6) | –
3 | Cn1ncc2c(-c3ccc(-n4c(=O)n(CC(=O)NCC(F)(F)F)c5ccccc54)c(Cl)c3)cncc21 [Example 87, 2-[3-[2-chloro-4-(1-methylpyrazolo[3,4-c]pyridin-4-yl)phenyl]-2-oxo-benzimidazol-1-yl]-N-(2,2,2-trifluoroethyl)acetamide] | – | A (pIC50>8) | D (pIC50≤6) | –
4 | Cc1cccc2c1n(-c1ccc(-c3cncc4[nH]ncc34)nc1)c(=O)n2CC(=O)N[C@@H](C)C(F)(F)F [Example 68, 2-[4-methyl-2-oxo-3-[6-(1H-pyrazolo[3,4-c]pyridin-4-yl)-3-pyridyl]benzimidazol-1-yl]-N-[(1S)-2,2,2-trifluoro-1-methyl-ethyl]acetamide] | 10 to 100 | A (pIC50>8) | – | –
5 | Cn1ncc2c(-c3ccc(-n4c(=O)n(CC(=O)NCC(F)(F)F)c5ccccc54)c(F)c3)cncc21 [Example 15, 2-[3-[2-fluoro-4-(1-methylpyrazolo[3,4-c]pyridin-4-yl)phenyl]-2-oxo-benzimidazol-1-yl]-N-(2,2,2-trifluoroethyl)acetamide] | – | – | D (pIC50≤6) | 100 to 1000
6 | Cn1ncc2c(-c3ccc(-n4c(=O)n(CC(=O)N5CCOC(C(F)(F)F)C5)c5ccccc54)cc3)cncc21 (stereo not drawn) [Example 24, 1-[4-(1-methylpyrazolo[3,4-c]pyridin-4-yl)phenyl]-3-[2-oxo-2-[2-(trifluoromethyl)morpholin-4-yl]ethyl]benzimidazol-2-one] | – | A (pIC50>8) | D (pIC50≤6) | –
7 | Cc1cccc2c1n(-c1cnc(-c3cncc4c3cnn4C)cn1)c(=O)n2CC(=O)N[C@@H](C)C(F)(F)F [Example 49, 2-[4-methyl-3-[5-(1-methylpyrazolo[3,4-c]pyridin-4-yl)pyrazin-2-yl]-2-oxo-benzimidazol-1-yl]-N-[(1S)-2,2,2-trifluoro-1-methyl-ethyl]acetamide] | 10 to 100 | A (pIC50>8) | – | –
8 | Cc1cccc2c1n(-c1cnc(-c3cncc4c3cnn4C)nc1)c(=O)n2CC(=O)NCC(F)(F)F [Example 75, 2-[4-methyl-3-[2-(1-methylpyrazolo[3,4-c]pyridin-4-yl)pyrimidin-5-yl]-2-oxo-benzimidazol-1-yl]-N-(2,2,2-trifluoroethyl)acetamide] | 100 to 1000 | – | – | 10 to 100
9 | Cn1ncc2c(-c3ccc(-n4c(=O)n(CC(=O)N5CCC[C@H]5C(F)(F)F)c5ccccc54)cc3)cncc21 [Example 2, 1-[4-(1-methylpyrazolo[3,4-c]pyridin-4-yl)phenyl]-3-[2-oxo-2-[(2S)-2-(trifluoromethyl)pyrrolidin-1-yl]ethyl]benzimidazol-2-one] | 100 to 1000 | A (pIC50>8) | – | –
10 | COc1cccc2c1n(-c1ccc(-c3cncc4c3cnn4C)cc1)c(=O)n2CC(=O)N[C@@H](C)C(F)(F)F [Example 85, 2-[4-methoxy-3-[4-(1-methylpyrazolo[3,4-c]pyridin-4-yl)phenyl]-2-oxo-benzimidazol-1-yl]-N-[(1S)-2,2,2-trifluoro-1-methyl-ethyl]acetamide] | – | D (pIC50≤6) | D (pIC50≤6) | –
11 | Cn1ncc2c(-c3ccc(-n4c(=O)n(CC(=O)N5CCC[C@@H](C(F)(F)F)C5)c5ccccc54)cc3)cncc21 [Example 29, 1-[4-(1-methylpyrazolo[3,4-c]pyridin-4-yl)phenyl]-3-[2-oxo-2-[(3R)-3-(trifluoromethyl)-1-piperidyl]ethyl]benzimidazol-2-one] | – | A (pIC50>8) | D (pIC50≤6) | –
12 | Cc1cccc2c1n(-c1ccc(-c3cncc4[nH]ncc34)cc1)c(=O)n2CC(=O)NCC(F)(F)F [Example 44, 2-[4-methyl-2-oxo-3-[4-(1H-pyrazolo[3,4-c]pyridin-4-yl)phenyl]benzimidazol-1-yl]-N-(2,2,2-trifluoroethyl)acetamide] | 10 to 100 | – | – | < 10
13 | Cc1nc(-c2cncc3[nH]nc(C)c23)ccc1-n1c(=O)n(CC(=O)NCC(F)(F)F)c2cccc(C)c21 [Example 103, 2-[4-methyl-3-[2-methyl-6-(3-methyl-1H-pyrazolo[3,4-c]pyridin-4-yl)-3-pyridyl]-2-oxo-benzimidazol-1-yl]-N-(2,2,2-trifluoroethyl)acetamide] | – | – | D (pIC50≤6) | 10 to 100
14 | Cc1cc(-n2c(=O)n(CC(=O)NCC(F)(F)F)c3cccc(C)c32)cnc1-c1cncc2c1cnn2C [Example 97, 2-[4-methyl-3-[5-methyl-6-(1-methylpyrazolo[3,4-c]pyridin-4-yl)-3-pyridyl]-2-oxo-benzimidazol-1-yl]-N-(2,2,2-trifluoroethyl)acetamide] | – | D (pIC50≤6) | D (pIC50≤6) | –
15 | CC(CNC(=O)Cn1c(=O)n(-c2ccc(-c3cncc4c3cnn4C)cc2)c2ccccc21)C(F)(F)F (stereo not drawn) [Example 33, 2-[3-[4-(1-methylpyrazolo[3,4-c]pyridin-4-yl)phenyl]-2-oxobenzimidazol-1-yl]-N-(3,3,3-trifluoro-2-methyl-propyl)acetamide] | – | – | D (pIC50≤6) | 10 to 100
16 | Cn1ncc2c(-c3ccc(-n4c(=O)n(CC(=O)N5CCO[C@H](C(F)(F)F)C5)c5ccccc54)cc3)cncc21 [Example 38, 1-[4-(1-methylpyrazolo[3,4-c]pyridin-4-yl)phenyl]-3-[2-oxo-2-[(2S)-2-(trifluoromethyl)morpholin-4-yl]ethyl]benzimidazol-2-one] | – | – | D (pIC50≤6) | 10 to 100
17 | Cc1cccc2c1n(-c1cnc(-c3cncc4c3cnn4C)cn1)c(=O)n2CC(=O)NCC(F)(F)F [Example 47, 2-[4-methyl-3-[5-(1-methylpyrazolo[3,4-c]pyridin-4-yl)pyrazin-2-yl]-2-oxo-benzimidazol-1-yl]-N-(2,2,2-trifluoroethyl)acetamide] | 100 to 1000 | A (pIC50>8) | – | –
18 | Cc1cccc2c1n(-c1ccc(-c3cncc4c3cnn4C)cn1)c(=O)n2CC(=O)NCC(F)(F)F [Example 58] | 100 to 1000 | – | – | 10 to 100
19 | Cn1ncc2c(-c3ccc(-n4c(=O)n(CC(=O)N5CCCC[C@@H]5C(F)(F)F)c5ccccc54)cc3)cncc21 [Example 30, 1-[4-(1-methylpyrazolo[3,4-c]pyridin-4-yl)phenyl]-3-[2-oxo-2-[(2R)-2-(trifluoromethyl)-1-piperidyl]ethyl]benzimidazol-2-one] | – | – | D (pIC50≤6) | 100 to 1000
20 | CC(NC(=O)Cn1c(=O)n(-c2ccc(-c3cncc4c3cnn4C)cc2)c2ccccc21)C(F)(F)F (stereo not drawn) [Example 17, 2-[3-[4-(1-methylpyrazolo[3,4-c]pyridin-4-yl)phenyl]-2-oxobenzimidazol-1-yl]-N-(2,2,2-trifluoro-1-methylethyl)acetamide] | 100 to 1000 | – | – | 10 to 100
21 | Cc1cccc2c1n(-c1ccc(-c3cncc4c3cnn4C)nn1)c(=O)n2CC(=O)NCC(F)(F)F [Example 67, 2-[4-methyl-3-[6-(1-methylpyrazolo[3,4-c]pyridin-4-yl)pyridazin-3-yl]-2-oxo-benzimidazol-1-yl]-N-(2,2,2-trifluoroethyl)acetamide] | 100 to 1000 | – | – | 10 to 100
22 | Cc1cccc2c1n(-c1ccc(-c3cncc4c3cnn4C)cc1)c(=O)n2CC(=O)N1CCO[C@@H](C(F)(F)F)C1 [Example 10, 4-methyl-3-[4-(1-methypyrazolo[3,4-c]pyridin-4-yl)phenyl]-1-[2-oxo-2-[(2R)-2-(trifluoromethyl)morpholin-4-yl]ethyl]benzimidazol-2-one] | 10 to 100 | A (pIC50>8) | – | –
23 | CC(CC(F)(F)F)NC(=O)Cn1c(=O)n(-c2ccc(-c3cncc4c3cnn4C)cc2)c2ccccc21 (stereo not drawn) [Example 28, 2-[3-[4-(1-methylpyrazolo[3,4-c]pyridin-4-yl)phenyl]-2-oxo-benzimidazol-1-yl]-N-(3,3,3-trifluoro-1-methyl-propyl)acetamide] | – | A (pIC50>8) | D (pIC50≤6) | –
24 | COc1cccc2c1n(-c1ccc(-c3cncc4c3cnn4C)cc1)c(=O)n2CC(=O)NCC(F)(F)F [Example 12, 2-[4-methoxy-3-[4-(1-methylpyrazolo[3,4-c]pyridin-4-yl)phenyl]-2-oxobenzimidazol-1-yl]-N-(2,2,2-trifluoroethyl)acetamide] | – | – | D (pIC50≤6) | 10 to 100
